Measurements: PubChem BioAssay AID248 (DTP/NCI, 2004)
Values joined by “and” are separate entries in the source; they are usually repeats but may differ in a detail not shown here. Equal entries are not always repeated. Inconclusive results and toxic doses are left out.

System: L1210 leukemia ip in BDF1 mice, survival T/C
Experiment: NCI In Vivo Anticancer Drug Screen. Data for tumor model L1210 Leukemia (intraperitoneal) in B6D2F1 (BDF1) mice
Details: endpoint: mean survival time, higher = longer survival
Summary of the method: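 Survival endpoint. Drug-treated group vs vehicle group, expressed as T divided by C. Tumor passaged by transplantation.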

[1] = dose: 100.0 mg/kg/injection, schedule: Q01DX009 (ip), vehicle: saline
[2] = dose: 100.0 mg/kg/injection, schedule: Q04DX003 (ip), vehicle: saline
[3] = dose: 200.0 mg/kg/injection, schedule: Q01DX009 (ip), vehicle: saline
[4] = dose: 200.0 mg/kg/injection, schedule: Q04DX003 (ip), vehicle: saline
[5] = dose: 400.0 mg/kg/injection, schedule: Q01DX009 (ip), vehicle: saline
[6] = dose: 400.0 mg/kg/injection, schedule: Q04DX003 (ip), vehicle: saline
[7] = dose: 50.0 mg/kg/injection, schedule: Q01DX009 (ip), vehicle: saline with Tween-80
[8] = dose: 100.0 mg/kg/injection, schedule: Q04DX003 (ip), vehicle: Klucel (hydroxypropylcellulose) (HPC)
[9] = dose: 200.0 mg/kg/injection, schedule: Q04DX003 (ip), vehicle: Klucel (hydroxypropylcellulose) (HPC)
[10] = dose: 400.0 mg/kg/injection, schedule: Q04DX003 (ip), vehicle: Klucel (hydroxypropylcellulose) (HPC)
[11] = dose: 100.0 mg/kg/injection, schedule: Q01DX001 (ip), vehicle: saline
[12] = dose: 200.0 mg/kg/injection, schedule: Q01DX001 (ip), vehicle: saline
[13] = dose: 400.0 mg/kg/injection, schedule: Q01DX001 (ip), vehicle: saline
[14] = dose: 100.0 mg/kg/injection, schedule: Q04DX002 (ip), vehicle: Klucel (hydroxypropylcellulose) (HPC)
[15] = dose: 100.0 mg/kg/injection, schedule: Q01DX009 (ip), vehicle: saline with Tween-80
[16] = dose: 100.0 mg/kg/injection, schedule: Q04DX003 (ip), vehicle: saline with Tween-80
[17] = dose: 200.0 mg/kg/injection, schedule: Q01DX009 (ip), vehicle: saline with Tween-80
[18] = dose: 200.0 mg/kg/injection, schedule: Q04DX003 (ip), vehicle: saline with Tween-80
[19] = dose: 400.0 mg/kg/injection, schedule: Q04DX003 (ip), vehicle: saline with Tween-80
[20] = dose: 400.0 mg/kg/injection, schedule: Q01DX001 (ip), vehicle: other

Compound: CC1CCC(O)C1O (stereo not given)
- T/C [1]: 105 % of control
- T/C [2]: 94 % of control
- T/C [3]: 105 % of control
- T/C [4]: 97 % of control
- T/C [5]: 102 % of control
- T/C [6]: 97 % of control

Compound: CC(C)NNC(=O)c1ccc(N)cc1
- T/C [2]: 105 % of control
- T/C [4]: 113 % of control
- T/C [6]: 108 % of control

Compound: O=S1(=O)C2CCC(C2)C1Cl (stereo not given)
- T/C (dose: 25.0 mg/kg/injection, schedule: Q01DX009 (ip), vehicle: saline with Tween-80): 102 % of control
- T/C [7]: 101 % of control

Compound: CC(C)N(c1ccc(C(=NO)c2ccc(N(C(C)C)C(C)C)cc2)cc1)C(C)C
- T/C [8]: 90 % of control
- T/C [9]: 88 % of control
- T/C [10]: 92 % of control

Compound: COC(=O)C(C)C1(O)CCCCC1 (stereo not given)
- T/C [1]: 96 % of control
- T/C [3]: 93 % of control
- T/C [5]: 91 % of control

Compound: CC(=N/Nc1ccccc1)/C(C)=N/Nc1ccccc1
- T/C (dose: 100.0 mg/kg/injection, schedule: Q01DX001 (ip), vehicle: Klucel (hydroxypropylcellulose) (HPC)): 101 % of control
- T/C (dose: 100.0 mg/kg/injection, schedule: Q01DX009 (ip), vehicle: Klucel (hydroxypropylcellulose) (HPC)): 88 % of control
- T/C (dose: 200.0 mg/kg/injection, schedule: Q01DX001 (ip), vehicle: Klucel (hydroxypropylcellulose) (HPC)): 91 % of control
- T/C (dose: 200.0 mg/kg/injection, schedule: Q01DX009 (ip), vehicle: Klucel (hydroxypropylcellulose) (HPC)): 95 % of control
- T/C (dose: 400.0 mg/kg/injection, schedule: Q01DX001 (ip), vehicle: Klucel (hydroxypropylcellulose) (HPC)): 102 % of control
- T/C (dose: 400.0 mg/kg/injection, schedule: Q01DX009 (ip), vehicle: Klucel (hydroxypropylcellulose) (HPC)): 98 % of control

Compound: Nc1nc(N)c(N=Nc2c(Br)cc(S(N)(=O)=O)cc2Br)c(=O)[nH]1
- T/C [11]: 100 % of control
- T/C [12]: 105 % of control
- T/C [13]: 102 % of control

Compound: NC(CSC(c1ccccc1)(c1ccccc1)c1ccc(Cl)cc1)C(=O)O (stereo not given)
- T/C (dose: 1.3 mg/kg/injection, schedule: Q01DX009 (ip), vehicle: saline): 100 % of control
- T/C (dose: 2.0 mg/kg/injection, schedule: Q01DX009 (ip), vehicle: saline): 118 % of control
- T/C (dose: 6.25 mg/kg/injection, schedule: Q01DX009 (ip), vehicle: acetone): 151 % of control
- T/C (dose: 12.5 mg/kg/injection, schedule: Q01DX009 (ip), vehicle: acetone): 156 % of control
- T/C (dose: 12.5 mg/kg/injection, schedule: Q01DX009 (ip), vehicle: other): 163 % of control

Compound: CCCCCCCCCCCCCCCCNC(=S)NCCCCCCCCCCCCCCCC
- T/C (dose: 25.0 mg/kg/injection, schedule: Q04DX002 (ip), vehicle: Klucel (hydroxypropylcellulose) (HPC)): 93 % of control
- T/C (dose: 50.0 mg/kg/injection, schedule: Q04DX002 (ip), vehicle: Klucel (hydroxypropylcellulose) (HPC)): 90 % of control
- T/C [14]: 102 % of control
- T/C [8]: 95 % of control
- T/C [9]: 101 % of control
- T/C [10]: 88 % of control

Compound: CC(=O)c1ccc2ccc3ccccc3c2c1
- T/C (dose: 75.0 mg/kg/injection, schedule: Q01DX009 (ip), vehicle: saline): 98 % of control
- T/C [2]: 98 % of control
- T/C (dose: 150.0 mg/kg/injection, schedule: Q01DX009 (ip), vehicle: saline): 98 % of control
- T/C [4]: 101 % of control
- T/C (dose: 300.0 mg/kg/injection, schedule: Q01DX009 (ip), vehicle: saline): 95 % of control
- T/C [6]: 101 % of control

Compound: CCOC(=O)CCC(=O)OCC
- T/C [11]: 95 % of control
- T/C [12]: 95 % of control
- T/C [13]: 93 % of control

Compound: CCN(CC)c1ccc(NC(=O)Nc2ccccc2C)cc1
- T/C [15]: 93 % of control
- T/C [16]: 100 % of control
- T/C [17]: 90 % of control
- T/C [18]: 94 % of control
- T/C (dose: 400.0 mg/kg/injection, schedule: Q01DX009 (ip), vehicle: saline with Tween-80): 94 % of control
- T/C [19]: 94 % of control

Compound: CCCCNC(=O)Nc1c(C)cccc1C
- T/C (dose: 100.0 mg/kg/injection, schedule: Q01DX009 (ip), vehicle: gum acacia): 99 % of control
- T/C (dose: 100.0 mg/kg/injection, schedule: Q04DX003 (ip), vehicle: gum acacia): 92 % of control
- T/C (dose: 200.0 mg/kg/injection, schedule: Q01DX009 (ip), vehicle: gum acacia): 87 % of control
- T/C (dose: 200.0 mg/kg/injection, schedule: Q04DX003 (ip), vehicle: gum acacia): 91 % of control
- T/C (dose: 400.0 mg/kg/injection, schedule: Q01DX009 (ip), vehicle: gum acacia): 87 % of control
- T/C (dose: 400.0 mg/kg/injection, schedule: Q04DX003 (ip), vehicle: gum acacia): 92 % of control

Compound: COc1ccc(C)cc1NC(=O)NC(=O)c1ccc(Cl)cc1
- T/C [7]: 88 % of control
- T/C [15]: 98 % of control
- T/C [17]: 95 % of control

Compound: COc1ccc(NC(=O)N(C)Cc2ccccc2Cl)cc1
- T/C [14]: 96 % of control
- T/C (dose: 200.0 mg/kg/injection, schedule: Q04DX002 (ip), vehicle: Klucel (hydroxypropylcellulose) (HPC)): 110 % of control
- T/C (dose: 400.0 mg/kg/injection, schedule: Q04DX002 (ip), vehicle: Klucel (hydroxypropylcellulose) (HPC)): 104 % of control

Compound: O=NN(c1ccccc1)c1ccc2ccccc2c1
- T/C [8]: 105 % of control
- T/C [9]: 110 % of control
- T/C [10]: 110 % of control

Compound: O=C(OC1CCCCC1)c1ccccc1-c1ccccc1C(=O)OC1CCCCC1
- T/C (dose: 100.0 mg/kg/injection, schedule: Q01DX001 (ip), vehicle: other): 91 % of control
- T/C (dose: 200.0 mg/kg/injection, schedule: Q01DX001 (ip), vehicle: other): 91 % of control
- T/C [20]: 86 % of control

Compound: CCNC(=S)NNc1ccccc1
- T/C [16]: 100 % of control
- T/C [18]: 96 % of control

Compound: NNC(=O)C12CCCCC1CCC2 (stereo not given)
- T/C (dose: 100.0 mg/kg/injection, schedule: Q01DX009 (ip), vehicle: acetone): 88 % of control
- T/C (dose: 100.0 mg/kg/injection, schedule: Q04DX003 (ip), vehicle: acetone): 100 % of control
- T/C (dose: 200.0 mg/kg/injection, schedule: Q04DX003 (ip), vehicle: acetone): 100 % of control
- T/C (dose: 400.0 mg/kg/injection, schedule: Q01DX009 (ip), vehicle: acetone): 87 % of control
- T/C (dose: 400.0 mg/kg/injection, schedule: Q04DX003 (ip), vehicle: acetone): 105 % of control

Compound: CC(=O)OC1CCC(NC(N)=O)CC1 (stereo not given)
- T/C (dose: 176.0 mg/kg/injection, schedule: Q01DX001 (ip), vehicle: other): 102 % of control
- T/C (dose: 264.0 mg/kg/injection, schedule: Q01DX001 (ip), vehicle: other): 120 % of control
- T/C [20]: 97 % of control
- T/C (dose: 600.0 mg/kg/injection, schedule: Q01DX001 (ip), vehicle: other): 105 % of control

Compound: CCCC/C(COC)=N\N=C(\CCOC)COC
- T/C (dose: 200.0 mg/kg/injection, schedule: Q01DX001 (ip), vehicle: carboxymethylcellulose (CMC)): 94 % of control
- T/C (dose: 400.0 mg/kg/injection, schedule: Q01DX001 (ip), vehicle: carboxymethylcellulose (CMC)): 94 % of control

Compound: CCOCCOCCC(=O)OC
- T/C (dose: 62.5 mg/kg/injection, schedule: Q01DX001 (ip), vehicle: Klucel (hydroxypropylcellulose) (HPC)): 95 % of control
- T/C (dose: 125.0 mg/kg/injection, schedule: Q01DX001 (ip), vehicle: Klucel (hydroxypropylcellulose) (HPC)): 89 % of control
- T/C (dose: 250.0 mg/kg/injection, schedule: Q01DX001 (ip), vehicle: Klucel (hydroxypropylcellulose) (HPC)): 113 % of control

Compound: O=C1c2ccccc2C(=O)N1N1C(=O)C2C3CCC(O3)C2C1=O (stereo not given)
- T/C (dose: 100.0 mg/kg/injection, schedule: Q01DX001 (ip), vehicle: saline with Tween-80): 97 % of control and 91 % of control
- T/C (dose: 100.0 mg/kg/injection, schedule: Q04DX002 (ip), vehicle: saline with Tween-80): 101 % of control and 106 % of control
- T/C [16]: 93 % of control and 95 % of control
- T/C (dose: 200.0 mg/kg/injection, schedule: Q01DX001 (ip), vehicle: saline with Tween-80): 94 % of control and 90 % of control
- T/C (dose: 200.0 mg/kg/injection, schedule: Q04DX002 (ip), vehicle: saline with Tween-80): 105 % of control
- T/C [18]: 95 % of control and 100 % of control
- T/C (dose: 400.0 mg/kg/injection, schedule: Q01DX001 (ip), vehicle: saline with Tween-80): 96 % of control and 97 % of control
- T/C (dose: 400.0 mg/kg/injection, schedule: Q04DX002 (ip), vehicle: saline with Tween-80): 94 % of control and 101 % of control
- T/C [19]: 95 % of control and 100 % of control
